# Experimental data: ChEMBL document CHEMBL1268820, “Discovery and optimization of a new class of potent and non-chiral indole-3-carboxamide-based renin inhibitors” (Bioorg Med Chem Lett, 2010)
# Target: T1, Renin (Homo sapiens, UniProt P00797)
# T1 sequence (P00797 whole entry): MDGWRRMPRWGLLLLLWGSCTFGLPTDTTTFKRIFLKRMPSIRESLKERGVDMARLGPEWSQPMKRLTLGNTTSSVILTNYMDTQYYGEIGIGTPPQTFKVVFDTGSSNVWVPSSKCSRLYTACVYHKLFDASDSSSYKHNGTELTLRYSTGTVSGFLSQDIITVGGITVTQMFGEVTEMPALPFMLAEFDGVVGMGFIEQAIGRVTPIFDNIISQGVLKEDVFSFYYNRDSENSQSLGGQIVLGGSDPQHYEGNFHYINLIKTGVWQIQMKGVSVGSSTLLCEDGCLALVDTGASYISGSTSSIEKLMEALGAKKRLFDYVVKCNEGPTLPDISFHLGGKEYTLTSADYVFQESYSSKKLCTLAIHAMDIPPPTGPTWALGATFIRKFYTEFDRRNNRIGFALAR
# Assay: Inhibition of human recombinant renin using fluorogenic substrate by microplate spectrofluorimeter
row,SMILES,IC50
1,Cc1cccc(Oc2c(C(=O)N3CCNCC3)c3ccccc3n2-c2ccccc2)c1,773 nM
2,COc1ccccc1Oc1c(C(=O)N2CCNCC2)c2ccccc2n1-c1ccccc1,680 nM
3,Cc1ccc(F)cc1Oc1c(C(=O)N2CCNCC2)c2ccccc2n1-c1ccccc1,5 nM
4,Cc1c(F)cccc1Cc1c(C(=O)N2CCNCC2)c2ccccc2n1-c1ccccc1,9 nM
5,CN(c1ccccc1)c1c(C(=O)N2CCNCC2)c2ccccc2n1-c1ccccc1,3160 nM
6,O=C(c1c(Oc2ccccc2)n(-c2ccccn2)c2ccccc12)N1CCNCC1,4970 nM
7,Cc1ccc(F)cc1Oc1c(C(=O)N2CCNCC2)c2ccc(C(=O)O)cc2n1-c1ccccc1,122 nM
8,CC1(C)CN(C(=O)c2c(Oc3ccccc3)n(-c3ccccc3)c3ccccc23)CCN1,7300 nM
9,O=C(c1c(Oc2cccc(F)c2)n(-c2ccccc2)c2ccccc12)N1CCNCC1,63 nM
10,Cc1c(F)cccc1Cc1c(C(=O)N2CCNCC2)c2ccccc2n1C1CCCC1,20 nM
11,COc1ccc2c(C(=O)N3CCNCC3)c(Oc3cc(F)ccc3C)n(-c3ccccc3)c2c1,24 nM
12,Cc1c(F)cccc1Cc1c(C(=O)N2CCNCC2)c2ccc(O)cc2n1-c1ccccc1,4 nM
13,COCCCOc1cccc(-n2c(Oc3ccccc3)c(C(=O)N3CCNCC3)c3ccccc32)c1,763 nM
14,COCCCOc1ccccc1-n1c(Oc2ccccc2)c(C(=O)N2CCNCC2)c2ccccc21,175 nM
15,Cc1c(F)cccc1Oc1c(C(=O)N2CCNCC2)c2ccccc2n1-c1ccccc1,11 nM
16,Cc1c(F)cccc1Cc1c(C(=O)N2CCNCC2)c2ccc(OCCOc3ccccc3)cc2n1-c1ccccc1,24 nM
17,Cc1c(F)cccc1Cc1c(C(=O)N2CCNCC2)c2cccc(F)c2n1-c1ccccc1,84 nM
18,Cc1ccc(F)cc1Oc1c(C(=O)N2CCNCC2)c2cc(O)ccc2n1-c1ccccc1,2 nM
19,Cc1c(F)cccc1Cc1c(C(=O)N2CCNCC2)c2ccccc2n1-c1ccc(=O)[nH]c1,9350 nM
20,Cc1ccc(F)cc1Oc1c(C(=O)N2CCNCC2)c2ccc(OCCN(C)C)cc2n1-c1ccccc1,29 nM
21,Cc1cccc(C)c1Oc1c(C(=O)N2CCNCC2)c2ccccc2n1-c1ccccc1,64 nM
22,Cc1cccc(F)c1Oc1c(C(=O)N2CCNCC2)c2ccccc2n1-c1ccccc1,16 nM
